Laboratory results: ChEMBL document CHEMBL4418299, “Compounds useful as csf1 modulators” (2016)

Legend:
[1] = target: Macrophage colony-stimulating factor 1 receptor (Homo sapiens, UniProt P07333); experiment: Displacement of kinase tracer 236 from recombinant human His-tagged CSF1R cytoplasmic domain (538 to 910 residues) expressed in baculovirus-infected insect cells measured after 5 hrs by TR-FRET based LanthaScreen assay
[2] = target: Vascular endothelial growth factor receptor 2 (Homo sapiens, UniProt P35968); experiment: Displacement of kinase tracer 236 from recombinant human His-tagged KDR cytoplasmic domain (789 to 1356 residues) expressed in baculovirus-infected insect cells measured after 5 hrs by TR-FRET based LanthaScreen assay
Vascular endothelial growth factor receptor 2, sequence (P35968 whole entry, the tested form may be a part): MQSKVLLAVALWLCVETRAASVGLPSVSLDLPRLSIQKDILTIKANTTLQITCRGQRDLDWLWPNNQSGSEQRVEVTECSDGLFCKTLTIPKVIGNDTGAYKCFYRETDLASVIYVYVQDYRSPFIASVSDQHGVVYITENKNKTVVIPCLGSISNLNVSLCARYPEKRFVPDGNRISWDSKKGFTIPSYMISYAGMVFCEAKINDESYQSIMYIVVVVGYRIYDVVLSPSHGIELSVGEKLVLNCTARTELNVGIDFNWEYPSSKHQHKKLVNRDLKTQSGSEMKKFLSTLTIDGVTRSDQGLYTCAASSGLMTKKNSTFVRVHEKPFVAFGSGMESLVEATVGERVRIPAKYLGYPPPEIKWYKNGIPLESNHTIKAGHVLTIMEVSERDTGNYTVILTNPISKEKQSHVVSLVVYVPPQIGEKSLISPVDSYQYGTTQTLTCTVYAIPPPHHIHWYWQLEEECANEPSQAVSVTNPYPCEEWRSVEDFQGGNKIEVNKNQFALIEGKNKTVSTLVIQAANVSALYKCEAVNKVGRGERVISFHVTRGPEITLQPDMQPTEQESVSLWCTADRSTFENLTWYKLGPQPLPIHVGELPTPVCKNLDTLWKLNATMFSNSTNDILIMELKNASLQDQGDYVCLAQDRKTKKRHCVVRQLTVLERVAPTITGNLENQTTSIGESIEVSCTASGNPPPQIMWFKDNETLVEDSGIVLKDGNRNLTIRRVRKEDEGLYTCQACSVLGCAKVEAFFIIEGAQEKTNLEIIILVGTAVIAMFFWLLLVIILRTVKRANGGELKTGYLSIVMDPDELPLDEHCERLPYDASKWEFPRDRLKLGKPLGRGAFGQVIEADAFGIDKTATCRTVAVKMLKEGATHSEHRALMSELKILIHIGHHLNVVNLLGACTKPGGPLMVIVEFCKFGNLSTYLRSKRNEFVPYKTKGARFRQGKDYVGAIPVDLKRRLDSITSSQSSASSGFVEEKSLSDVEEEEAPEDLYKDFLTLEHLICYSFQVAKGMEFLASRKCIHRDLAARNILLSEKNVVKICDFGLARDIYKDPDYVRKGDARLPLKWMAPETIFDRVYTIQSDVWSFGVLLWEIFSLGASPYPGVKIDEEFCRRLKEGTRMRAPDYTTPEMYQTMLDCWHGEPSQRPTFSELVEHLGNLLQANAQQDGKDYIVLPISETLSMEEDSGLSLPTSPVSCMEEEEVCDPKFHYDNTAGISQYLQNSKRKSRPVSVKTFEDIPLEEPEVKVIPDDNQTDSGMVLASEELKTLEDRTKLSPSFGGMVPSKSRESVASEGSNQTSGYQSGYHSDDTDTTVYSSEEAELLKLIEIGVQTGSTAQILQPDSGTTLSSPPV

Macrophage colony-stimulating factor 1 receptor, sequence (P07333 whole entry, the tested form may be a part): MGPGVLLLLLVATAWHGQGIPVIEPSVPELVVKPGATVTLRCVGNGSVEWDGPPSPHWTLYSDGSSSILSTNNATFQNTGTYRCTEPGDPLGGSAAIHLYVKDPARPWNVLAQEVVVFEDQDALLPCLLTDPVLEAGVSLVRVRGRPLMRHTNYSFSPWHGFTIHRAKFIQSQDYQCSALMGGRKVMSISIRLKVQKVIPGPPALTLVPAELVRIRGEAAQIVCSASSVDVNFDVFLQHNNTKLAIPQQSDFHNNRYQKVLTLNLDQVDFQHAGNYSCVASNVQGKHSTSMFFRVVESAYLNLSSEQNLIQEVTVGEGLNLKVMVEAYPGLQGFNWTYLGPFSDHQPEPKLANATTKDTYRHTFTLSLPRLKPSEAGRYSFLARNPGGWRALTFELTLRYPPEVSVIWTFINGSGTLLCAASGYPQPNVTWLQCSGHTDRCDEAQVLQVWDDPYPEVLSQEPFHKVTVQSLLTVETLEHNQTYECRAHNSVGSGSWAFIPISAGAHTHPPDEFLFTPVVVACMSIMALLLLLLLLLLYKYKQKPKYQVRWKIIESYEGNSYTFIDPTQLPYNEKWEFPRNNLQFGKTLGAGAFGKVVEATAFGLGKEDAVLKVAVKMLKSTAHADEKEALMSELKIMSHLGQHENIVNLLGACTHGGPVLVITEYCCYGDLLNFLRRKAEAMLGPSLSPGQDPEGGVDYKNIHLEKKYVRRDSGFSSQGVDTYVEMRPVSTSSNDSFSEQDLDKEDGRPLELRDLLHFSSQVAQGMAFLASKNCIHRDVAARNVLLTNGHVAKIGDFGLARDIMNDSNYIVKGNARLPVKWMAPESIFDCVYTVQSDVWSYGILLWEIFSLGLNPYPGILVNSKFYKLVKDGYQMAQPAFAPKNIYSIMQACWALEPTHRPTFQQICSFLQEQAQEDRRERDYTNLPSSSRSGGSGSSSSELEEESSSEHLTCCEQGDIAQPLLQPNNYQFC

## Cc1ccc(F)c(CC(=O)Nc2ccc(-n3c4c(c5ncnc(N)c53)CCC4)cc2)c1
[1]
  IC50: < 10 nM
[2]
  IC50: > 200 nM

## Nc1ncnc2c3c(n(-c4ccc(CC(=O)N5CCOc6ccccc65)cc4)c12)CCC3
[1]
  IC50: < 10 nM
[2]
  IC50: > 200 nM

## Nc1ncnc2c3c(n(-c4ccc(NC(=O)Cc5ccc(Cl)nn5)cc4)c12)CCC3
[1]
  IC50: 10 to 200 nM
[2]
  IC50: > 200 nM

## COc1cc(-n2c3c(c4ncnc(N)c42)CCC3)ccc1NC(=O)Cc1ccc(OC)c(C(F)(F)F)c1
[1]
  IC50: 10 to 200 nM
[2]
  IC50: > 200 nM

## Nc1ncnc2c3c(n(-c4ccc(NC(=O)Cc5cc(Cl)ccc5F)cc4)c12)CCC3
[1]
  IC50: < 10 nM
[2]
  IC50: > 200 nM

## Cc1ccc(CC(=O)Nc2ccc(-n3c4c(c5ncnc(N)c53)COC4)cc2)c(F)c1
[1]
  IC50: 10 to 200 nM
[2]
  IC50: > 200 nM

## Nc1ncnc2c3c(n(-c4ccc(NC(=O)Cc5nc6ccccc6s5)cc4)c12)CCC3
[1]
  IC50: 10 to 200 nM
[2]
  IC50: > 200 nM

## Nc1ncnc2c3c(n(-c4ccc(NC(=O)Cc5ccccc5)cc4F)c12)CCC3
[1]
  IC50: 47 nM
[2]
  IC50: > 200 nM

## COc1cc(F)c(CC(=O)Nc2ccc(-n3c4c(c5ncnc(N)c53)CCC4)cc2)c(F)c1
[1]
  IC50: < 10 nM
[2]
  IC50: 10 to 200 nM

## COc1cc(-n2c3c(c4ncnc(N)c42)COC3)ccc1NC(=O)Cc1ccc(OC(F)(F)F)cc1
[1]
  IC50: 6 nM
[2]
  IC50: > 200 nM

## COc1ccc(NC(=O)Cc2ccc(-n3c4c(c5ncnc(N)c53)CCC4)cc2)c(F)c1
[1]
  IC50: 10 to 200 nM
[2]
  IC50: > 200 nM

## Cc1ccc(F)c(CC(=O)Nc2ccc(-n3c4c(c5ncnc(N)c53)COC4)cc2)c1
[1]
  IC50: 10 to 200 nM
[2]
  IC50: > 200 nM

## Nc1ncnc2c3c(n(-c4ccc(CC(=O)Nc5ccc(C(F)(F)F)nc5)cc4)c12)CCC3
[1]
  IC50: 10 to 200 nM
[2]
  IC50: > 200 nM

## CC(C)c1cn(C)c2ccc(CC(=O)Nc3ccc(-n4c5c(c6ncnc(N)c64)CCC5)cc3)cc12
[1]
  IC50: 10 to 200 nM
[2]
  IC50: > 200 nM

## Nc1ncnc2c3c(n(-c4ccc(NC(=O)c5c[nH]c6ccccc56)cc4)c12)CCC3
[1]
  IC50: > 200 nM
[2]
  IC50: > 200 nM

## COc1cc(-n2c3c(c4ncnc(N)c42)CCC3)ccc1CC(=O)Nc1ccc(OC(F)(F)F)cc1
[1]
  IC50: < 10 nM
[2]
  IC50: > 200 nM

## Nc1ncnc2c3c(n(-c4ccc(CC(=O)Nc5ccc6c(c5)CCC6)cc4)c12)CCC3
[1]
  IC50: < 10 nM
[2]
  IC50: 10 to 200 nM

## Cc1ccc(CC(=O)Nc2ccc(-n3c4c(c5ncnc(N)c53)CCC4)cc2)cc1F
[1]
  IC50: < 10 nM
[2]
  IC50: > 200 nM

## Nc1ncnc2c3c(n(-c4ccc(NC(=O)Cc5ccc(Cl)cc5F)cc4)c12)CCC3
[1]
  IC50: < 10 nM
[2]
  IC50: > 200 nM

## COc1cc(CC(=O)Nc2ccc(-n3c4c(c5ncnc(N)c53)CCC4)cc2)cc(OC)c1
[1]
  IC50: > 200 nM
[2]
  IC50: > 200 nM

## Nc1ncnc2c3c(n(-c4ccc(NC(=O)Cc5cc(C(F)(F)F)ccc5F)c(F)c4)c12)COC3
[1]
  IC50: 10 to 200 nM
[2]
  IC50: > 200 nM

## Nc1ncnc2c3c(n(-c4ccc(NC(=O)Cc5ccc(C(F)(F)F)nc5)cc4)c12)CCC3
[1]
  IC50: < 10 nM
[2]
  IC50: > 200 nM

## COc1cc(CC(=O)Nc2ccc(-n3c4c(c5ncnc(N)c53)CCC4)cc2)ccc1F
[1]
  IC50: 10 to 200 nM
[2]
  IC50: > 200 nM

## Nc1ncnc2c3c(n(-c4ccc(NC(=O)Cc5cccc(OC(F)F)c5)cc4)c12)CCC3
[1]
  IC50: 10 to 200 nM
[2]
  IC50: > 200 nM

## COc1ccc(CC(=O)Nc2ccc(-n3c4c(c5ncnc(N)c53)COC4)cc2)cc1C
[1]
  IC50: < 10 nM
[2]
  IC50: > 200 nM

## Cc1cc(CC(=O)Nc2ccc(-n3c4c(c5ncnc(N)c53)CCC4)cc2)on1
[1]
  IC50: 10 to 200 nM
[2]
  IC50: > 200 nM

## COc1ccc(NC(=O)Cc2ccc(-n3c4c(c5ncnc(N)c53)CCC4)cc2OC)cc1F
[1]
  IC50: < 10 nM
[2]
  IC50: > 200 nM

## Nc1ncnc2c3c(n(-c4ccc(CC(=O)Nc5ccccc5)cc4)c12)CCC3
[1]
  IC50: 10 to 200 nM
[2]
  IC50: > 200 nM

## COc1ccc(CC(=O)Nc2ccc(-n3c4c(c5ncnc(N)c53)CCC4)cc2)cc1
[1]
  IC50: < 10 nM
[2]
  IC50: > 200 nM

## Nc1ncnc2c3c(n(-c4ccc(NC(=O)Cc5ccc(C(F)(F)F)nn5)cc4)c12)CCC3
[1]
  IC50: 10 to 200 nM
[2]
  IC50: > 200 nM

## COc1cc(-n2c3c(c4ncnc(N)c42)CCC3)ccc1CC(=O)Nc1ccnc(C(F)(F)F)c1
[1]
  IC50: < 10 nM
[2]
  IC50: > 200 nM

## Nc1ncnc2c3c(n(-c4ccc(CC(=O)Nc5ccc(OC(F)(F)F)cc5)cc4)c12)CCC3
[1]
  IC50: 10 to 200 nM
[2]
  IC50: > 200 nM

## COc1cc(-n2c3c(c4ncnc(N)c42)CCC3)ccc1NC(=O)Cc1cc(C)ccc1F
[1]
  IC50: < 10 nM
[2]
  IC50: > 200 nM
